Measurements from patent US9604973B2, “Anti-cancer polyketide compounds” (priority 2012, dated 2017).

Columns and labels:
[1] = tested on: HCT-116 cell line; assay: MTT cell proliferation assay; assay type: cell-based; conditions: HCT-116 cell line; for IC50: MTT
Source text: Structure Activity Relationships (SAR) studies for 1SS, […], 1RS, and […]. It has been reported that ablation of C3, C6 and C7 substituents is detrimental to activity. […] (See FIG. 4). Additional activity was also observed when C17 was left in its natural R configuration.

[2] = tested on: GAPDH; assay: RT-PCR of spliced and unspliced mRNA (intron retention) in CLL cells, housekeeping gene; assay type: cell-based, human; conditions: 4 hours, same concentrations
Description: (§1) FIG. 23: FD-895 and PLAD induced inhibition of splicing in CLL: RT-PCR for analysis of spliced and unspliced mRNAs. CLL cells treated with FD-895, PLAD (10, 100 nM), chemotherapeutic agent like bendamustine (33, 100 μM) and F-Ara-A (3, 10, 33 μM) for 4 hours. RT-PCR for DNAJB1 was performed with primers spanning two exons; products were analyzed on ethidium bromide-stained agarose gels (2%) to visualize the correct size of the unspliced mRNAs. […] The exon structure of DNAJB1 gene is indicated. G, human genomic DNA was used as a control; U, unspliced mRNA; S, spliced mRNA.
(§2) CLL cells were treated with 10 and 100 nM of FD-895 and PLAD, 33 and 100 μM of bendamustine and 3, 10, and 33 μM of F-Ara-A for 4 h. Normal B and CLL cells were treated with 100 nM of FD-895 and PLAD and 10 μM of F-Ara-A for 15 minutes, 30 minutes, 1, 2 and 4 h. Total RNA was extracted using mirVana™ miRNA isolation kit (Ambion Life Technology, USA). After DNase treatment, 200 ng total RNA was reverse-transcribed using a SuperScript™ III first-strand synthesis system (Invitrogen). PCR was performed on 10 ng of the obtained cDNA (or human genomic DNA as a control) in 25 μl of reaction mixture containing Plantinum® PCR SuperMix High-fidelity (Invitrogen Life Technology, USA), and 0.1 μM of each primer of the appropriate pair.
(§3) PCR conditions were 94° C. for 3 min; 35 cycles of 94° C. for 30 s, 60° C. for 30 s, and 72° C. for 1 min; followed by 72° C. for 5 min. PCR products were separated on a 2% agarose gel and stained with ethidium bromide.

[3] = tested on: DNAJB1; assay: RT-PCR of spliced and unspliced mRNA (intron retention) in CLL cells; assay type: cell-based, human; conditions: 4 hours, FD-895, PLAD 10, 100 nM, bendamustine 33, 100 μM, F-Ara-A 3, 10, 33 μM
Description: as §1, §2, §3

[4] = tested on: CLL cells; assay: Flow cytometry, % specific induced apoptosis (DiOC6/PI) in primary CLL cells; assay type: cell-based, human; conditions: Homo sapiens, CLL cell; CLL cells from patient with del (17p) and Tp53 mutation, 48 hours
Description: FIG. 20A-20C: FD-895 and PLAD induce apoptosis in CLL cells but not in normal lymphocytes with a TP53 independent activity: Primary leukemia B cells from CLL (FIG. 20A) patient with del (17p) and Tp53 mutation, (FIG. 20B) patient with wild type p53 and sensitive to F-Ara-A and (FIG. 20C) normal lymphocytes from healthy donor were incubated with FD-895, PLAD and F-Ara-A (0, 10, 100, 1000 10,000 nM) for 48 hours.
FIG. 21: FD-895 and PLAD induce apoptosis in CLL cells not ONLY independently of Tp53 but also independently of SF3B1 mutational status: Primary leukemia B cells from CLL patient with SF3B1 wild, SF3B1 mutation, 17p DEL and normal B and T lymphocytes from healthy donor were incubated with FD-895 and PLAD with 100 nM for 48 hours. After incubation, the samples were harvested and % SIA was measured by flow cytometry as described above. […] Each dots represents number of CLL patient sample and normal B or T cells.
Peripheral blood mononuclear cells (PBMC) from patients with CLL were obtained from the CLL Research Consortium (CRC) tissue bank. The blood samples were collected after obtaining a written informed consent from the patients under a protocol approved by the institutional review board of The University of California, San Diego. All patients met criteria for CLL.^1 CLL B cells and PBMCs were separated from heparinized venous blood of the B-CLL patients by density gradient centrifugation using Ficoll-Hypaque (GE healthcare) as described earlier.^2 The samples that were used had more than 95% positive cells for CD19 and CD5+, as assessed by flow cytometry. CLL B cells were maintained in RPMI 1640 medium supplemented with 10% FBS, 2 mM L-glutamine, and 100 U/mL of penicillin and 100 μg/mL of streptomycin at 37° C. in an atmosphere of 5% CO2.
Apoptotic and viable cells were discriminated via flow cytometry of cells stained with 3,3′ dihexyloxacarbocyanine iodide (DiOC6) (Molecular Probes, Eugene, Oreg., USA) and propidium iodine (Sigma, St Louis, Mo., USA), as described.^3 Using this method viable cells exclude PI and stain brightly positive for DiOC6.

In the case of `CC[C@H](OC)[C@@H](C)[C@H]1O[C@@H]1[C@H](O)[C@@H](C)/C=C/C=C(\C)[C@H]1OC(=O)C[C@H](O)CC[C@@](C)(O)[C@@H](OC(C)=O)/C=C/[C@@H]1C` [Isomer 1RS], the “times more active than FD-895” value [1] is reported as roughly 25 times and the IC50 [1] is reported as 0.8 ± 0.05 nM.
With `CC[C@H](OC)[C@@H](C)[C@H]1O[C@@H]1[C@@H](O)[C@@H](C)/C=C/C=C(\C)[C@H]1OC(=O)C[C@H](O)CC[C@@](C)(O)[C@@H](OC(C)=O)/C=C/[C@@H]1C` [Isomer 1SS] the IC50 ([1]; Homo sapiens) was 23 ± 1.2 nM.
For `Cn1c(CCCC(=O)O)nc2cc(N(CCCl)CCCl)ccc21` [Bendamustine], the “splicing inhibition of housekeeping gene GAPDH” value [2] was “Neither FD-895, PLAD nor chemotherapy agents showed splicing inhibition” and the “intron retention/splicing inhibition of DNAJB1” value [3] was “did not show intron retention/splicing inhibition”.
`CC[C@H](OC)[C@@H](C)[C@H]1O[C@@H]1[C@@H](O)[C@H](C)/C=C/C=C(\C)[C@H]1OC(=O)C[C@H](O)CC[C@@](C)(O)[C@@H](OC(C)=O)/C=C/[C@@H]1C` [Isomer 1SR] showed an IC50 [1] of 3.7 ± 0.2 nM.
`Nc1nc(F)nc2c1ncn2[C@@H]1O[C@H](COP(=O)(O)O)[C@@H](O)[C@@H]1O` [F-Ara-A, Fludarabine phosphate] gave an IC50 [4] greater than 10000 nM.
